Laboratory results reported in article PMC12567244, “Innovative Amino-Functionalization of Pyrido[2,3-d]pyrimidine Scaffolds for Broad Therapeutic Applications Supported by Computational Analyses” (Pharmaceuticals, 2025).
Values after ≈ are worked out from the molar mass of the structure shown. Values joined by “and” are separate entries in the source; they are usually repeats but may differ in a detail not shown here. Equal entries are not always repeated. Where two headings read alike, the source gives them in different places.

Assays:
mutant EGFRL858R [1] = target: T1, mutant EGFRL858R (Homo sapiens, UniProt P00533, L858R); assay: biochemical
E. faecalis ATCC29212 [2] = assay: MIC, two-fold serial dilution, E. faecalis; assay type: cell-based, Enterococcus faecalis; conditions: Enterococcus faecalis, ATCC29212
P. aeruginosa ATCC10145 [3] = assay: Well diffusion inhibition zone, P. aeruginosa; conditions: Pseudomonas aeruginosa, ATCC10145, read-out: Inhibition zone P. aeruginosa ATCC10145
liver carcinoma (HepG-2) = assay: MTT cytotoxicity assay, HepG-2
E.coli ATCC25915 = assay: Well diffusion inhibition zone, E. coli; conditions: Escherichia coli, ATCC25915, read-out: Inhibition zone E.coli ATCC25915
MCF-7 cells [4] = assay: Annexin V-FITC/PI apoptosis analysis; assay type: cell-based, human; conditions: MCF-7, 48 h
in vitro = conditions: human, WI-38 normal lung fibroblast cells
HeLa, HepG-2, and MCF-7 = assay: MTT cytotoxicity, range over the cancer cell panel; conditions: read-out: IC50 across HeLa, HepG-2 and MCF-7; range over all examined cancer cell lines
E. coli ATCC25915 = assay: MIC, two-fold serial dilution, E. coli; assay type: cell-based; conditions: Escherichia coli
[5] = test system: cervical carcinoma (HeLa); assay: MTT cytotoxicity assay, HeLa
S. aureus ATCC25923 = assay: MIC, two-fold serial dilution, S. aureus; assay type: cell-based, Staphylococcus aureus; conditions: Staphylococcus aureus, ATCC25923
E. faecalis ATCC29212 [6] = assay: Well diffusion inhibition zone, E. faecalis; conditions: Enterococcus faecalis, ATCC29212, read-out: Inhibition zone E. faecalis ATCC29212
EGFRWT = EGFRWT (Homo sapiens, UniProt P00533); assay: HTRF enzyme inhibitory assay, EGFR WT
EGFRT790M [7] = target: T2, EGFRT790M (Homo sapiens, UniProt P00533, T790M); assay: biochemical
breast carcinoma (MCF-7) = assay: MTT cytotoxicity assay, MCF-7
EGFRT790M [8] = target: T2, EGFRT790M
MCF-7 cells [9] = assay: Cell cycle analysis by flow cytometry; assay type: cell-based, human; conditions: MCF-7, 48 h incubation
P. aeruginosa ATCC10145 [10] = assay: MIC, two-fold serial dilution, P. aeruginosa; assay type: cell-based; conditions: Pseudomonas aeruginosa
mutant EGFRL858R [11] = target: T1, mutant EGFRL858R
MCF-7 cells [12] = assay: Wound healing (scratch) assay; assay type: cell-based, human

T1 sequence (P00533 25-1210 L858R): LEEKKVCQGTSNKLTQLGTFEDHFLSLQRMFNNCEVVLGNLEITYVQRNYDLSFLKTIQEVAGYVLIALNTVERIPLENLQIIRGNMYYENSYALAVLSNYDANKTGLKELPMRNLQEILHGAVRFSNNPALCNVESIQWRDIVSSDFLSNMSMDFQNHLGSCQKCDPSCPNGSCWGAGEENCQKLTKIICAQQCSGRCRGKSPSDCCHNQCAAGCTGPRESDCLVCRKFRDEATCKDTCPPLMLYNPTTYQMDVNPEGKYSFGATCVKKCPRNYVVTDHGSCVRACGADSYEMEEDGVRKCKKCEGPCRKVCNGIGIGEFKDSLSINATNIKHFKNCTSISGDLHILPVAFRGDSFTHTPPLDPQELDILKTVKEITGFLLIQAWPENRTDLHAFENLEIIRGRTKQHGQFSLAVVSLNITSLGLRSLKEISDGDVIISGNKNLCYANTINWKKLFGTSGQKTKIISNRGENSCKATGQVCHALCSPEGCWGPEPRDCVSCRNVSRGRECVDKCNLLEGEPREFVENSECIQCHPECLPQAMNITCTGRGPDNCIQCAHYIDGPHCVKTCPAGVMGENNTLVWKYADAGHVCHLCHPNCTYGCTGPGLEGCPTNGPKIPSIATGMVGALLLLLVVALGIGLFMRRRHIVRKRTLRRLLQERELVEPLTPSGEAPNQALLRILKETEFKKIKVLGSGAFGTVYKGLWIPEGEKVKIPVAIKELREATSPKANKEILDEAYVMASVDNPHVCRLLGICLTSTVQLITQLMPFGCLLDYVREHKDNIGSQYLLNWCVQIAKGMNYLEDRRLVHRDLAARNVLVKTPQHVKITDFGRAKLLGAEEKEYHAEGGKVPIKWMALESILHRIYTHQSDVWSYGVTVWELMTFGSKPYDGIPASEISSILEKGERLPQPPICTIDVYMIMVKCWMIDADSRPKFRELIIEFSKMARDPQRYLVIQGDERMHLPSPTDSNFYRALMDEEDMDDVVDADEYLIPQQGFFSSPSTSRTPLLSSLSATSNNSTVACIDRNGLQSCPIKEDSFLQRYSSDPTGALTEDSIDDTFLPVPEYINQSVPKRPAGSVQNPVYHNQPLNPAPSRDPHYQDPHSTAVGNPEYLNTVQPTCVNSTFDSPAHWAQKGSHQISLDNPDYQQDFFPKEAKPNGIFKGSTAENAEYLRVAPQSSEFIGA
Chain of EGFRWT (P00533 25-1210): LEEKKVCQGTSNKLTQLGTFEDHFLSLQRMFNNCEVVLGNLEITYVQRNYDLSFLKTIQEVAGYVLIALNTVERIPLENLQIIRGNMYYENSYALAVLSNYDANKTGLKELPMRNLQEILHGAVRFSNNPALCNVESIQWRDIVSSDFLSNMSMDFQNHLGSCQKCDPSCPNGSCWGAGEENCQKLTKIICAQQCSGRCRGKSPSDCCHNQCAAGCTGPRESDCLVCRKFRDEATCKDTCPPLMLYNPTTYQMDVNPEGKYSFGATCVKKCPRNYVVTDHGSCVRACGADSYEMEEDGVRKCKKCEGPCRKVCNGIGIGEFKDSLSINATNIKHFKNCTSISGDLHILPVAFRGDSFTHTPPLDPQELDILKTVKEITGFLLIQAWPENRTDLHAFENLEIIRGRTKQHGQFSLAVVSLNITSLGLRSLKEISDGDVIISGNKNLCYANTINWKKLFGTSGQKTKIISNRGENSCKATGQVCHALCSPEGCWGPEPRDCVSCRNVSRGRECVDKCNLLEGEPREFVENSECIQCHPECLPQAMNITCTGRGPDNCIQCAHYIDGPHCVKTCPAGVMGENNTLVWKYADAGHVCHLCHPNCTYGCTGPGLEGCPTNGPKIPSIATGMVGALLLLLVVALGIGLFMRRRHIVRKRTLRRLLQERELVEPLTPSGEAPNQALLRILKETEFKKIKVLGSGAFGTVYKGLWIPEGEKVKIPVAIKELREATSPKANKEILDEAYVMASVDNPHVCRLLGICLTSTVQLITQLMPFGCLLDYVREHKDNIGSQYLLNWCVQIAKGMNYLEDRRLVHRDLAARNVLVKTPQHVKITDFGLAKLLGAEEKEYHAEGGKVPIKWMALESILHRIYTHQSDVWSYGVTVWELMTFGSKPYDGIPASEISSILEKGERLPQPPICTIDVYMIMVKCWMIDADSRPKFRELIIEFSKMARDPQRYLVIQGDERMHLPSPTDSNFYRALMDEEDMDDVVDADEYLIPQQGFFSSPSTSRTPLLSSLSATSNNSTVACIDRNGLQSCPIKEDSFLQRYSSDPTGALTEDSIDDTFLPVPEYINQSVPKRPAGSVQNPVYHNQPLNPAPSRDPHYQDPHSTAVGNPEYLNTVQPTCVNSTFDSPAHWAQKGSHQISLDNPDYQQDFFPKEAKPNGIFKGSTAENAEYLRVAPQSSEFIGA
T2 sequence (P00533 25-1210 T790M): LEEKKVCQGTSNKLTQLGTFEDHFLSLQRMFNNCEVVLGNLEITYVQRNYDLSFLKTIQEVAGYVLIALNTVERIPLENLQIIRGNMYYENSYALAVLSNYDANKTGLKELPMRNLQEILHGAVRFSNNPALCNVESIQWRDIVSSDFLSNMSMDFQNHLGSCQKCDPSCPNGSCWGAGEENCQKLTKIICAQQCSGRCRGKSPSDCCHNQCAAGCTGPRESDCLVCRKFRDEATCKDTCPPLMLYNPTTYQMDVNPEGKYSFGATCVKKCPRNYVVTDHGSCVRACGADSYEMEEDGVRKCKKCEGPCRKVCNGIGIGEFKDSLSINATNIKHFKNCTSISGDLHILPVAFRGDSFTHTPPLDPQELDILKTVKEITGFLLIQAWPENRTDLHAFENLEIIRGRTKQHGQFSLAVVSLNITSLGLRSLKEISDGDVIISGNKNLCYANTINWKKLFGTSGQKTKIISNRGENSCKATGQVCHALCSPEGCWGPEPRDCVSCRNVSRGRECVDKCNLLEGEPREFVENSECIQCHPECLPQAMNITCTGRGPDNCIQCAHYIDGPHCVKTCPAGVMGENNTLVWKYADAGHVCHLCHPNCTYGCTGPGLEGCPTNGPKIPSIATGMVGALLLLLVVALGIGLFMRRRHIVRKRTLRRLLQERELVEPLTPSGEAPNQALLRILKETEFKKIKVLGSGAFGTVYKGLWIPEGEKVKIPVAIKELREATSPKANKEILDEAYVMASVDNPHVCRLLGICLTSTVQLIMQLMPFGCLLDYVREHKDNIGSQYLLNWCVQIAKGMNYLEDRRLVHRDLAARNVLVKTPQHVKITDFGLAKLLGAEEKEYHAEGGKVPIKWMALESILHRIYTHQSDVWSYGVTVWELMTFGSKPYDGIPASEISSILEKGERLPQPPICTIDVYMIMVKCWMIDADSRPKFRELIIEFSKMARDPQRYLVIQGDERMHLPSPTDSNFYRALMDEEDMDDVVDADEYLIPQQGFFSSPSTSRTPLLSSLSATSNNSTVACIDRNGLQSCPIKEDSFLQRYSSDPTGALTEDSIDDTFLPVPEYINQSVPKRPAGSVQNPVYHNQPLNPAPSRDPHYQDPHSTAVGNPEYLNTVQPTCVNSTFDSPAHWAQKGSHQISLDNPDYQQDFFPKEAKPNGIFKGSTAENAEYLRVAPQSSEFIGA

CCOC(=O)c1c(N)nc2c(c1-c1ccc(Cl)cc1)c(=O)n(C)c(=O)n2C [Compound 1, Ethyl 7-amino-5-(4-chlorophenyl)-1,3-dimethyl-2,4-dioxo-1,2,3,4-tetrahydropyrido[2,3-d]pyrimidine-6-carboxylate]
IC50 (mutant EGFRL858R [1]): 1.16 ± 0.036 µM
MIC (E. faecalis ATCC29212 [2]): 100 µg/mL (≈ 257 µM)
zone of inhibition at 100 µg/mL (P. aeruginosa ATCC10145 [3]): 10.5 ± 0.05 mm
SI HepG-2 (liver carcinoma (HepG-2); IC50 WI-38 / IC50 HepG-2): 13.83
IC50 (liver carcinoma (HepG-2); read-out: IC50 HepG-2, MTT, mean ± SD of three measurements): 5.9 ± 0.3 µM
zone of inhibition at 100 µg/mL (E.coli ATCC25915): 9.5 ± 0.12 mm
Apoptosis Early (MCF-7 cells [4]): 5.86%
Apoptosis Late (MCF-7 cells [4]): 16.62%
Apoptosis Total (MCF-7 cells [4]): 26.37%
Necrosis (MCF-7 cells [4]): 3.89%
IC50 at 48 h (in vitro): 81.7 ± 4.1 µM
IC50 (HeLa, HepG-2, and MCF-7): 3.98 to 6.29 µM
MIC (E. coli ATCC25915): 50 µg/mL (≈ 129 µM)
SI HeLa ([5]; IC50 WI-38 / IC50 HeLa): 12.98
IC50 ([5]; read-out: IC50 HeLa, MTT, mean ± SD of three measurements): 6.29 ± 0.5 µM
MIC (S. aureus ATCC25923): 100 µg/mL (≈ 257 µM)
zone of inhibition at 100 µg/mL (E. faecalis ATCC29212 [6]): 2 ± 0.05 mm
IC50 (EGFRWT): 0.093 ± 0.003 µM
%inh EGFR WT (EGFRWT; conc 0.01): 29.6%
%inh EGFR WT (EGFRWT; conc 0.1): 51%
%inh EGFR WT (EGFRWT; conc 1): 74.5%
%inh EGFR WT (EGFRWT; conc 10): 85.3%
%inh EGFR WT (EGFRWT; conc 100): 96.1%
IC50 (EGFRT790M [7]): 0.174 ± 0.006 µM
SI MCF-7 (breast carcinoma (MCF-7); IC50 WI-38 / IC50 MCF-7): 20.51
IC50 (breast carcinoma (MCF-7); read-out: IC50 MCF-7, MTT, mean ± SD of three measurements): 3.98 ± 0.2 µM
%inh EGFR_T790M (EGFRT790M [8]; conc 0.01): 22.1%
%inh EGFR_T790M (EGFRT790M [8]; conc 0.1): 51.1%
%inh EGFR_T790M (EGFRT790M [8]; conc 1): 66.5%
%inh EGFR_T790M (EGFRT790M [8]; conc 10): 82.2%
%inh EGFR_T790M (EGFRT790M [8]; conc 100): 96.1%
%G0-G1 (MCF-7 cells [9]): 74.86%
%G2/M (MCF-7 cells [9]): 1.75%
%S (MCF-7 cells [9]): 22.79%
MIC (P. aeruginosa ATCC10145 [10]): 50 µg/mL (≈ 129 µM)
%inh EGFR_L858R (mutant EGFRL858R [11]; conc 0.01): 9.88%
%inh EGFR_L858R (mutant EGFRL858R [11]; conc 0.1): 23.7%
%inh EGFR_L858R (mutant EGFRL858R [11]; conc 1): 40%
%inh EGFR_L858R (mutant EGFRL858R [11]; conc 10): 75.6%
%inh EGFR_L858R (mutant EGFRL858R [11]; conc 100): 93.7%
Fold-Change L858R/WT (mutant EGFRL858R [11]; potency relative to wild-type EGFR): 12 × and 12.44×
Length of migration (MCF-7 cells [12]; MCF-7, 72 h): 0.31–0.32 mm
Migrated cells area (MCF-7 cells [12]; MCF-7, 72 h): 0.564 mm^2
Length of migration (MCF-7 cells [12]; MCF-7, 72 h, listed as U1): 0.31 mm
% Closure (wound closure) (MCF-7 cells [12]; MCF-7, after 72 h): 69.63% and 69.63 ± 2.57%
